Laboratory results: patent publication US20240174680A1, “CDK2 INHIBITORS AND METHODS OF USING THE SAME” (Cedilla Therapeutics, Inc., priority 2021, published 2024)

Target: CDK2/Cyclin E1 (Homo sapiens, UniProt P24941)
Assay: CDK2/Cyclin E1 Caliper LabChip EZ Reader mobility shift assay
Type: biochemical
Set-up: purchased Eurofins 14-475
Conditions: read-out: Caliper Assay (CDK2/CCNE1): IC50
Method in brief: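 Substrate-to-product conversion of fluorescent peptide (1.5 μM final) read by capillary electrophoresis after 100 min reaction, EDTA-quenched. Enzyme (2.5 nM final) and ATP (100 μM final) were preincubated 30 min with inhibitor dilutions first. % activity vs concentration fitted four-parameter for IC50.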

| SMILES | IC50 |
| --- | --- |
| CNC(=O)[C@@H](NC(=O)[C@H]1CN(C(=O)c2cnn(Cc3ccccc3)c2)CC12CN(C(=O)CC(F)(F)F)C2)[C@@H](C)OCc1ccccc1 [I-87B] | > 10 µM |
| CNC(=O)[C@@H](NC(=O)[C@@H]1CN(C(=O)c2cnn(Cc3ccccc3)c2)CC12CN(C(=O)[C@H]1CC1(C)C)C2)[C@@H](C)O [I-88A, (S)-6-(1-benzyl-1H-pyrazole-4-carbonyl)-2-((S)-2,2-dimethylcyclopropane-1-carbonyl)-N-((2S,3R)-3-hydroxy-1-(methylamino)-1-oxobutan-2-yl)-2,6-diazaspiro[3.4]octane-8-carboxamide] | > 10 µM |
| CNC(=O)[C@@H](NC(=O)[C@H]1CN(C(=O)c2cnn(Cc3ccccc3)c2)CC12CN(C(=O)C1CC1(C)C)C2)[C@@H](C)O (some centres unmarked) [I-88B] | > 10 µM |
| CNC(=O)[C@@H](NC(=O)[C@@H]1CN(C(=O)c2cnn(Cc3ccccc3)c2)CC12CN(C(=O)C1C(C)(C)C1(C)C)C2)[C@@H](C)OCc1ccccc1 [I-89A] | 1 to 10 µM |
| CNC(=O)[C@@H](NC(=O)[C@H]1CN(C(=O)c2cnn(Cc3ccccc3)c2)CC12CN(C(=O)C1C(C)(C)C1(C)C)C2)[C@@H](C)OCc1ccccc1 [I-89B] | > 10 µM |
| CNC(=O)[C@@H](NC(=O)[C@@H]1CN(C(=O)c2cnn(Cc3ccccc3)c2)CC12CN(C(=O)C(C)(C)F)C2)[C@@H](C)OCc1ccccc1 [I-90A] | 0.1 to 1 µM |
| CNC(=O)[C@@H](NC(=O)[C@H]1CN(C(=O)c2cnn(Cc3ccccc3)c2)CC12CN(C(=O)C(C)(C)F)C2)[C@@H](C)OCc1ccccc1 [I-90B] | > 10 µM |
| CC1(C)C[C@@H]1C(=O)N1CC2(CN(C(=O)c3cnn(Cc4ccccc4)c3)C[C@H]2C(=O)N2CCCC(Cc3ccccc3)C2)C1 (some centres unmarked) [I-91A] | > 10 µM |
| CC1(C)C[C@@H]1C(=O)N1CC2(CN(C(=O)c3cnn(Cc4ccccc4)c3)C[C@@H]2C(=O)N2CCCC(Cc3ccccc3)C2)C1 (some centres unmarked) [I-91B] | > 10 µM |
| CNC(=O)[C@@H](NC(=O)[C@@H]1CN(C(=O)c2cnn(Cc3ccccc3)c2)CC12CN(C(=O)CC1(CO)CC1)C2)[C@@H](C)OCc1ccccc1 [I-92A] | > 10 µM |
| CNC(=O)[C@@H](NC(=O)[C@H]1CN(C(=O)c2cnn(Cc3ccccc3)c2)CC12CN(C(=O)CC1(CO)CC1)C2)[C@@H](C)OCc1ccccc1 [I-92B] | > 10 µM |
| CC1(C)C[C@@H]1C(=O)N1CC2(CN(C(=O)c3cnn(Cc4ccccc4)c3)CC2C(=O)Nc2ncc(-c3ccccc3)o2)C1 (some centres unmarked) [I-93] | 1 to 10 µM |
| CCCCC1CC1C(=O)N1CC2(CN(C(=O)c3cnn(Cc4ccccc4)c3)C[C@H]2C(=O)N[C@H](C(=O)NC)[C@@H](C)OCc2ccccc2)C1 (some centres unmarked) [I-94A] | > 10 µM |
| CCCCC1CC1C(=O)N1CC2(CN(C(=O)c3cnn(Cc4ccccc4)c3)C[C@@H]2C(=O)N[C@H](C(=O)NC)[C@@H](C)OCc2ccccc2)C1 (some centres unmarked) [I-94B] | > 10 µM |
| CNC(=O)[C@@H](NC(=O)[C@@H]1CN(C(=O)c2cnn(CC3CCOCC3)c2)CC12CN(C(=O)[C@H]1CC1(C)C)C2)[C@@H](C)OCc1ccccc1 [I-95A] | 0.1 to 1 µM |
| CNC(=O)[C@@H](NC(=O)[C@H]1CN(C(=O)c2cnn(CC3CCOCC3)c2)CC12CN(C(=O)[C@H]1CC1(C)C)C2)[C@@H](C)OCc1ccccc1 [I-95B] | > 10 µM |
| CC1(C)C[C@@H]1C(=O)N1CC2(CN(C(=O)c3cnn(Cc4ccccc4)c3)C[C@H]2C(=O)NCCOCc2ccccc2)C1 [I-96A] | 0.1 to 1 µM |
| CC1(C)C[C@@H]1C(=O)N1CC2(CN(C(=O)c3cnn(Cc4ccccc4)c3)C[C@@H]2C(=O)NCCOCc2ccccc2)C1 [I-96B] | > 10 µM |
| C[C@@H](OCc1ccccc1)[C@H](NC(=O)C1CN(C(=O)c2cnn(Cc3ccccc3)c2)CC12CN(C(=O)[C@H]1CC1(C)C)C2)C(=O)N1CCCCC1 (stereo partly drawn) [I-97, 6-(1-benzyl-1H-pyrazole-4-carbonyl)-N-((2S,3R)-3-(benzyloxy)-1-oxo-1-(piperidin-1-yl)butan-2-yl)-2-((S)-2,2-dimethylcyclopropanecarbonyl)-2,6-diazaspiro[3.4]octane-8-carboxamide] | 0.01 to 0.1 µM |
| C[C@@H](OCc1ccccc1)[C@H](NC(=O)C1CN(C(=O)c2cnn(Cc3ccccc3)c2)CC12CN(C(=O)[C@H]1CC1(C)C)C2)C(=O)N1CCCC(CO)C1 (some centres unmarked) [I-98] | 0.01 to 0.1 µM |
